Test results published in patent publication US6080735A, “Estra-1,3,5(10)-trien derivatives, processes for their preparation and pharmaceutical compositions containing these compounds” (priority 1994, dated 2000).
Like-named read-outs stand apart in the source and are kept apart here.

Tests used:
liver = conditions: cited from earlier work
[1] = Blood level after oral application to ovariectomised rats; assay type: in vivo; conditions: ovariectomised rat, 10 μg/animal/d p.o., d1 to d7
Method: Evidence was provided to hepatic estrogenicity in ovariectomised rats: The adult female experimental animals (breeder: HSD/WIN:WU) were ovariectomised (Day […]). Treatment with one daily oral application of test substances was started two weeks after ovariectomy.
Start and end of treatment were defined as Day 1 (=d1) or Day 7 (=d7). The animals were sacrificed on Day 8. Several organs (uterus, adrenal glands, liver) were removed and weighed and were passed on in deep-frozen condition (-196° C.) for further investigation.
Blood was taken from the retrobulbar plexus prior to treatment (d0) as well as on (d4) and (d8), with the animals etherized. The serum thus obtained was used to determine IGF1, angiotensin I, cholesterol and HDL cholesterol.

[2] = cited from earlier work
[3] = system: uterus (ovariectomised rats); experiment: Uterus weight after oral treatment of ovariectomised rats (oral estrogen effects, sexual function); assay type: in vivo; conditions: ovariectomised rat, 10 μg/animal/d p.o., d1 to d7
Excerpt: The adult female experimental animals (breeder: HSD/WIN:WU) were ovariectomised (Day […]). Treatment with one daily oral application of test substances was started two weeks after ovariectomy. All animals were assigned to groups by randomised approach. The experiment was a block design. All animals were weighed twice, prior to and at the end of the experiment. Start and end of treatment were defined as Day 1 (=d1) or Day 7 (=d7). The animals were sacrificed on Day 8. Several organs (uterus, adrenal glands, liver) were removed and weighed and were passed on in deep-frozen condition (-196° C.) for further investigation.

angiotensin = conditions: EE 30 μg to 20 μg with 150 μg gestagen (desogestrel), cited from earlier work
[4] = cited from earlier work; remark: listed apart in the source
[5] = 0-24 hours from application, Goldzieher

## CC/C(=C(/CC)c1ccc(O)cc1)c1ccc(O)cc1 [DES]
liver; oral, compared with conjugated and natural estrogens
  Hepatic estrogenicity, in words: Even stronger hepatic estrogenicity

## C[C@]12CC[C@@H]3c4ccc(O)cc4CC[C@H]3[C@@H]1CC[C@@H]2O [Estradiol (E2), estradiol]
[1]
  Blood level: 0.0192 ng/mL (serum)
[2]; in vivo, po
  Bioavailability after oral application: tends to be minimised
[3]
  Uterus weight: 182 mg

## C[C@]12CC[C@@H]3c4ccc(O)cc4CC[C@H]3[C@@H]1C[C@@H](O)[C@@H]2O [Estriol (E3), estriol]
[2]; in words
  Bioavailability after oral application: tends to be minimised

## C#C[C@]1(O)CC[C@H]2[C@@H]3CCc4cc(O)ccc4[C@H]3CC[C@@]21C [Ethinyl estradiol (EE), ethinyl estradiol]
angiotensin; six months
  Effect of dose reduction on increased angiotensin levels: marginally reduced values
angiotensin; three months
  Effect of dose reduction on increased angiotensin levels: did not result in reduction
[1]
  Blood level: 0.0289 ng/mL (serum)
[4]; [5]
  highest AUC recorded: 2.121 ng·h/mL
  lowest AUC: 0.284 ng·h/mL
[4]; human, oral, in words
  Oral bioavailability compared with natural estrogens: much better in bioavailability
liver; in vivo, po
  Hepatic estrogenicity, in words: Even stronger hepatic estrogenicity
liver; in vivo
  Estrogenic effectiveness in the liver relative to orally administered natural estrogens: eight to ten times as high
[3]
  Uterus weight: 353 mg

## CN(C)S(=O)(=O)Oc1ccc2c(c1)CC[C@@H]1[C@@H]2CC[C@]2(C)[C@@H](O)C[C@@H]3C[C@]312 [J 982, 17β-hydroxy-14α,15α-methylene-estra-1,3,5(10)-trien-3-yl N,N-dimethylsulfamate]
[3]
  Uterus weight: 193 mg

## CCN(CC)S(=O)(=O)Oc1ccc2c(c1)CC[C@@H]1[C@@H]2CC[C@]2(C)[C@@H](O)C[C@@H]3C[C@]312 [J 983, 17β-hydroxy-14α,15α-methylene-estra-1,3,5(10)-trien-3-yl N,N-diethylsulfamate]
[3]
  Uterus weight: 349 mg

## CCN(CC)S(=O)(=O)Oc1ccc2c(c1)CC[C@@H]1[C@@H]2CC[C@]2(C)[C@@H](O)[C@H](O)C[C@@H]12 [J 984, 16α,17β-dihydroxy-estra-1,3,5(10)-trien-3-yl N,N-diethylsulfamate]
[3]
  Uterus weight: 246 mg

## CN(C)S(=O)(=O)Oc1ccc2c(c1)CC[C@@H]1[C@@H]2CC[C@]2(C)[C@@H](O)[C@H](O)C[C@@H]12 [J 989, 16α,17β-dihydroxy-estra-1,3,5(10)-trien-3-yl N,N-dimethylsulfamate]
[3]
  Uterus weight: 183 mg

## C[C@]12CC[C@@H]3c4ccc(OS(=O)(=O)O)cc4CC[C@H]3[C@@H]1CCC2=O [estrone sulphate]
[2]; in words
  Bioavailability after oral application: tends to be minimised

## C[C@]12CC[C@@H]3c4ccc(O)cc4CC[C@H]3[C@@H]1CCC2=O [estrone]
[2]; in vivo, po
  Bioavailability after oral application: tends to be minimised
